According to publication PMC6102747 (Molecular Medicine Reports, 2018):
Read-outs that look alike come from different tables or passages of the source.

Columns and labels:
Format in all cases: in vivo, rats
[1] = tested on: Sult1a1; assay: RT-qPCR mRNA expression in small intestine and liver; conditions: vs control
[2] = tested on: Mrp2; assay: Western blot protein expression in small intestine and liver; conditions: vs control, P<0.001
[3] = tested on: Car; assay: RT-qPCR mRNA expression in small intestine and liver; conditions: vs control
[4] = tested on: Cyp3a1; conditions: vs control
[5] = tested on: Bcrp; assay: RT-qPCR mRNA expression in small intestine and liver; conditions: vs control
[6] = liver, low-dose Q3GA 2.5 mg/kg i.v. 7 days, P<0.001
[7] = liver, middle-dose Q3GA 5 mg/kg i.v. 7 days, P<0.05
[8] = small intestine, high-dose Q3GA 10 mg/kg i.v. 7 days, P<0.01
[9] = small intestine, low-dose Q3GA 2.5 mg/kg i.v. 7 days, P<0.001
[10] = small intestine, middle-dose Q3GA 5 mg/kg i.v. 7 days, P<0.05
[11] = liver, high-dose Q3GA 10 mg/kg i.v. 7 days, P<0.01
[12] = liver, low-dose Q3GA 2.5 mg/kg i.v. 7 days, P<0.01

O=c1c(O[C@@H]2O[C@H](CO)[C@@H](O)[C@H](O)[C@H]2O)c(-c2ccc(O)c(O)c2)oc2cc(O)cc(O)c12 [Q3GA, Quercetin-3-O-β-D-glucoside]
decrease in Sult1a1 mRNA expression ([1]; liver, high-dose Q3GA 10 mg/kg i.v. 7 days): 18.39% | decrease in Sult1a1 mRNA expression [1, 6]: 58.06% | decrease in Sult1a1 mRNA expression [1, 7]: 31.94% | decrease in Sult1a1 mRNA expression [1, 8]: 52.02% | decrease in Sult1a1 mRNA expression [1, 9]: 64.54% | decrease in Sult1a1 mRNA expression [1, 10]: 33.80% | decrease in MRP2 protein expression ([2]; liver, low-dose Q3GA 2.5 mg/kg i.v. 7 days): 70.70% | decrease in MRP2 protein expression ([2]; small intestine, high-dose Q3GA 10 mg/kg i.v. 7 days): 50.84% | decrease in MRP2 protein expression ([2]; small intestine, low-dose Q3GA 2.5 mg/kg i.v. 7 days): 75.95% | decrease in MRP2 protein expression ([2]; small intestine, middle-dose Q3GA 5 mg/kg i.v. 7 days): 42.60% | increase in Car mRNA expression [3, 11]: 74.60% | increase in Car mRNA expression [3, 6]: 224.76% | increase in Car mRNA expression ([3]; liver, middle-dose Q3GA 5 mg/kg i.v. 7 days, P<0.001): 98.73% | increase in Car mRNA expression ([3]; small intestine, high-dose Q3GA 10 mg/kg i.v. 7 days, P<0.05): 117.54% | increase in Car mRNA expression [3, 9]: 265.44% | increase in Car mRNA expression [3, 10]: 99.57% | decrease in CYP3A1 protein expression [4, 11]: 52.99% | decrease in CYP3A1 protein expression [4, 12]: 57.66% | decrease in CYP3A1 protein expression [4, 7]: 43.95% | decrease in CYP3A1 protein expression ([4]; small intestine, high-dose Q3GA 10 mg/kg i.v. 7 days, P<0.001): 62.95% | decrease in CYP3A1 protein expression [4, 9]: 75.25% | decrease in CYP3A1 protein expression ([4]; small intestine, middle-dose Q3GA 5 mg/kg i.v. 7 days, P<0.01): 39.22% | decrease in Bcrp mRNA expression ([5]; liver, high-dose Q3GA 10 mg/kg i.v. 7 days, not significant): 29.23% | decrease in Bcrp mRNA expression [5, 12]: 56.15% | decrease in Bcrp mRNA expression ([5]; liver, middle-dose Q3GA 5 mg/kg i.v. 7 days, not significant): 29.23% | decrease in Bcrp mRNA expression [5, 8]: 43.68% | decrease in Bcrp mRNA expression [5, 9]: 63.83% | decrease in Bcrp mRNA expression [5, 10]: 27.52%
